In publication PMC12881674, “Activation of TRPV3 channels in bladder cancer cells stimulates ATP release” (Molecular Pharmacology, 2025):

Biological target: T1, mouse TRPV3 (Mus musculus, UniProt Q8K424)
T1 construct: expressed in transfected cells; host or cells: HEK293
T1 sequence (Q8K424 1-791): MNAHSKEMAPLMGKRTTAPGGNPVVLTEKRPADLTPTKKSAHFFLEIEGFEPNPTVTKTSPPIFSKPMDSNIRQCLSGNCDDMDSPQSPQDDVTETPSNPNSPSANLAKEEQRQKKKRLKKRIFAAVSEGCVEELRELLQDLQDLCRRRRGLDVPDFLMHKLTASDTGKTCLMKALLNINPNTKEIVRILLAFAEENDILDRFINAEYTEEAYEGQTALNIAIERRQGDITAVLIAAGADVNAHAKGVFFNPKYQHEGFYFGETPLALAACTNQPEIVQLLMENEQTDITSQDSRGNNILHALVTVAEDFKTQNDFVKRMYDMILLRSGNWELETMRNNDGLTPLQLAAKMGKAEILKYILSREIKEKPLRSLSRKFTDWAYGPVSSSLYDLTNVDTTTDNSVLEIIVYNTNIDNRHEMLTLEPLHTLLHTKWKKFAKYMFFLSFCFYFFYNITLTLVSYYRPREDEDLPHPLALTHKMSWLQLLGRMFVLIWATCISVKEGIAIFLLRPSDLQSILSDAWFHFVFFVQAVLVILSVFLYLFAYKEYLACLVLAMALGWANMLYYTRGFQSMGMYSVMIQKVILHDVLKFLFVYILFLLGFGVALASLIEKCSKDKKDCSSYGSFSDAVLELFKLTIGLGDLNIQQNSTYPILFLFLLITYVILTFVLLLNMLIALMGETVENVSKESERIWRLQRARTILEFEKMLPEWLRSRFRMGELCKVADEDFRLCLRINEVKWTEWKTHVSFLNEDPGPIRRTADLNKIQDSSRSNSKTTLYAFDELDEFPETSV
Test: whole-cell patch-clamp recordings in HEKmTRPV3 cells
Assay type: cell-based
Protocol: Whole-cell patch-clamp recordings were performed at room temperature using an […] amplifier connected to a Digidata 1440A digitizer under the control of the pCLAMP 10 software suite (Molecular Devices). Cells were plated onto PLL-coated glass coverslips 24–48 hours prior to recordings. […] The extracellular buffer consisted of 140 mM NaCl, 5 mM CsCl, 2 mM MgCl2, 1 mM CaCl2, and 10 mM HEPES, adjusted to pH 7.4 with NaOH. Recordings were performed with a liquid junction potential of +3.6 mV, which was not corrected. Voltage ramps ranging from −100 to 100 mV (500-millisecond duration) were applied at 1-second intervals. Series resistance was <15 MΩ and compensated by 70%. Only recordings with stable access resistance and minimal leak currents were included in the analysis. […]
Fig. 2 Electrophysiological analysis of AV3-1–activated TRPV3 currents in HEKmTRPV3 cells. […] Current amplitudes were recorded using voltage ramps from −100 mV to +100 mV (500-millisecond duration) such as in B and expressed as current density (pA/pF) measured at +100 mV and −100 mV. […] (C) Quantification of current densities (pA/pF) at −100 mV (inward current) and +100 mV (outward current) at the time points (1, 6–8) as indicated in (A). […] Statistical significance was determined using Kruskal-Wallis ANOVA followed by Conover test; ∗P < .05. […]

COC(=O)C12CN(Cc3ccccc3)CC1(C(=O)OC)CN(Cc1ccccc1)C2 (centres unmarked) [AV3-1]
TRPV3 currents evoked by activator (5 μM AV3-1, voltage ramps -100 to +100 mV): robust TRPV3-like currents | reversibility of effect on TRPV3 upon washout (washout of 5 μM AV3-1): fully reversible
